The source of these data is ChEMBL document CHEMBL3046327, “Nicotinic acid hydrazones: a novel anticonvulsant pharmacophore” (Med Chem Res, 2011).

As usually defined, the ED50 is the midpoint of the dose-response relation. The low end stands for an effect at a small dose, the high end for a need for a large dose. What is called TD50 is the dose at which the toxic effect under study appears in half of the subjects. Low readings indicate greater toxicity, high ones lower toxicity.

Data set [1] has as its system Mus musculus. Kind of data set: Neurotoxicity in Mus musculus C57B/6 (mouse) assessed motor impairment at 300 mg/kg, ip after 4 hr by rotarod test. Format: toxicity, organism-based. The following applies: in vivo. Also on record: dose 300 mg/kg, route intraperitoneal. On the technique in general: The rotarod test checks motor coordination on a turning rod.
Data set [2] has as its system Mus musculus. Kind of data set: Anticonvulsant activity in Mus musculus C57B/6 (mouse) assessed protection against subcutaneous pentylenetetrazole-induced seizures at 300 mg/kg, ip after 0.5 hr. The format is functional, organism-based. Further details: dose 300 mg/kg.
Data set [3] deals with Mus musculus. Kind of data set: Neurotoxicity in Mus musculus C57B/6 (mouse) assessed motor impairment at 300 mg/kg, ip after 0.5 hr by rotarod test. Format: toxicity, organism-based. Further details: dose 300 mg/kg, route intraperitoneal. The following applies: in vivo.
The subject of data set [4] is Mus musculus. Kind of data set: Anticonvulsant activity in Mus musculus C57B/6 (mouse) assessed protection against maximal electroshock-induced seizures at 300 mg/kg, ip after 0.5 hr. Format: functional, organism-based. Further details: dose 300 mg/kg. (In the maximal electroshock model the usual endpoint is tonic extension of the hind limbs.)
For data set [5], the system named is Mus musculus. Kind of data set: Anticonvulsant activity in Mus musculus C57B/6 (mouse) assessed protection against subcutaneous pentylenetetrazole-induced seizures at 300 mg/kg, ip after 4 hr. The format is functional, organism-based. Further details: dose 300 mg/kg.
The subject of data set [6] is Mus musculus. Kind of data set: Anticonvulsant activity in Mus musculus C57B/6 (mouse) assessed protection against maximal electroshock-induced seizures at 300 mg/kg, ip after 4 hr. Further details: dose 300 mg/kg. Format: functional, organism-based.
The test system of data set [7] is Mus musculus. Kind of data set: Anticonvulsant activity in ip dosed Mus musculus C57B/6 (mouse) assessed protection against maximal electroshock-induced seizures after 4 hr. The following applies: C57B/6, ip, read-out: MED. The format is functional.
Data set [8] deals with Mus musculus. Kind of data set: Anticonvulsant activity in ip dosed Mus musculus C57B/6 (mouse) assessed protection against maximal electroshock-induced seizures after 0.5 hr. The format is functional. The following applies: C57B/6, ip, read-out: MED.
Data set [9] relates to Mus musculus. Kind of data set: Neurotoxicity in ip dosed Mus musculus C57B/6 (mouse) assessed motor impairment after 0.5 hr by rotarod test. Format: toxicity, organism-based. The following applies: in vivo.
Data set [10] has as its system Mus musculus. Kind of data set: Neurotoxicity in ip dosed Mus musculus C57B/6 (mouse) assessed motor impairment after 4 hr by rotarod test. Format: toxicity, organism-based. The following applies: in vivo.
Data set [11] relates to Rattus norvegicus. Kind of data set: Anticonvulsant activity in po dosed Rattus norvegicus Sprague-Dawley (rat) assessed protection against 6 Hz psychomotor seizure by minimal clonic seizure test. Format: functional.
Data set [12] can be described thus: Neurotoxicity in po dosed Rattus norvegicus Sprague-Dawley (rat) assessed motor impairment by rotarod test. Format: toxicity, organism-based. Particulars: in vivo.
A short description of data set [13]: Neurotoxicity in ip dosed Mus musculus C57B/6 (mouse) assessed motor impairment by rotarod test. The format is toxicity, organism-based. Particulars: in vivo.
Data set [14] relates to Mus musculus. Kind of data set: Anticonvulsant activity in ip dosed Mus musculus C57B/6 (mouse) assessed protection against 6 Hz psychomotor seizure after 0.25 hr by minimal clonic seizure test. The following applies: C57B/6, ip, read-out: MED. Format: functional.
The species named for data set [15] is Mus musculus. Kind of data set: Protective index, ratio of TD50 for Mus musculus C57B/6 (mouse) to ED50 for Mus musculus C57B/6 (mouse) assessed protection against 6 Hz psychomotor seizure by minimal clonic seizure test. The format is functional.
Data set [16] has as its system Mus musculus. Kind of data set: Anticonvulsant activity in ip dosed Mus musculus C57B/6 (mouse) assessed protection against 6 Hz psychomotor seizure after 0.5 hr by minimal clonic seizure test. Format: functional. Particulars: C57B/6, ip, read-out: MED.
For data set [17], the species on record is Rattus norvegicus. Kind of data set: Protective index, ratio of TD50 for Rattus norvegicus Sprague-Dawley (rat) to ED50 for Rattus norvegicus Sprague-Dawley (rat) assessed protection against 6 Hz psychomotor seizure by minimal clonic seizure test. The format is functional.
Data set [18] concerns Mus musculus. Kind of data set: Anticonvulsant activity in ip dosed Mus musculus C57B/6 (mouse) assessed protection against 6 Hz psychomotor seizure by minimal clonic seizure test. The format is functional. The following applies: C57B/6, ip.

Active and inactive are the calls of the source. The rule behind the calls is not given here.

On to `O=C(N/N=C/c1ccc([N+](=O)[O-])cc1)c1ccncc1` [N'-(4-NITROBENZYLIDENE)ISONICOTINOHYDRAZIDE], for which the Activity result in [1] and in data set [3] was “Non-toxic” each time. Also, the result in [2], in [4], in [5] and in data set [6] was inactive.

With `O=C(N/N=C/c1ccccc1Br)c1ccncc1`, the Activity entry in [1] and in data set [3] was “Non-toxic” throughout. For the same molecule, the result in [2], in data set [4], in data set [5] and in data set [6] was inactive.

On to `O=C(N/N=C/c1ccc(O)cc1)c1ccccc1`, for which the Activity result in data set [1] and in data set [3] was “Non-toxic” in each case. Also, the result in [2], in data set [4], in data set [5] and in [6] was inactive.

Turning to `Cc1ccc(C(=O)N/N=C/c2cccc(Cl)c2)cc1`, the minimal effective dose in data set [7] is 100 mg/kg. The Activity entry in data set [1] and in [3] was “Non-toxic” throughout. Besides, the result in [2], in data set [4] and in [5] was inactive.

Turning to `O=C(N/N=C/c1ccc(Cl)cc1)c1ccccc1`, the Activity entry in [1] and in data set [3] was “Non-toxic” in each case. Further, the result in [2], in data set [4], in data set [5] and in data set [6] was inactive.

As to `Cc1ccc(C(=O)N/N=C/c2ccc(Cl)cc2)cc1`, the Activity entry in data set [1] and in [3] was “Non-toxic” throughout. The result in [2], in data set [4], in data set [5] and in [6] was inactive.

Consider `O=C(N/N=C/c1cccc(Cl)c1)c1ccncc1` [N'-(3-CHLOROBENZYLIDENE)ISONICOTINOHYDRAZIDE], for which the Activity entry in data set [1] and in data set [3] was “Non-toxic” each time. In addition, in data set [8], the minimal effective dose is 300 mg/kg. Moreover, the outcome in [2], in data set [5] and in data set [6] was inactive.

Consider `Cc1ccc(C(=O)N/N=C/c2ccc([N+](=O)[O-])cc2)cc1`, for which the Activity result in data set [1] and in [3] was “Non-toxic” in each case. In addition, the outcome in [2], in [4], in [5] and in [6] was inactive.

On to `O=C(N/N=C/c1cccc(Br)c1)c1ccncc1`, for which the Activity entry in [1] and in data set [3] was “Non-toxic” in each case. Further, the outcome in data set [2], in data set [4], in data set [5] and in [6] was inactive.

With `O=C(N/N=C/c1ccccc1F)c1ccncc1`, the Activity result in [1] and in data set [3] was “Non-toxic” throughout. Besides, the outcome in data set [2], in data set [4], in data set [5] and in data set [6] was inactive.

Take `O=C1NC(=O)C(c2ccccc2)(c2ccccc2)N1` [PHENYTOIN]: the minimal effective dose in data set [7] and in data set [8] was 30 mg/kg in each case. Moreover, the Activity in data set [9] and in data set [10] was 100 mg/kg throughout. Besides, the outcome in [2] and in [5] was inactive.

Regarding `O=C(N/N=C/c1ccccc1F)c1ccccc1`, the Activity entry in data set [1] and in [3] was “Non-toxic” in each case. In addition, the outcome in data set [2], in data set [4], in data set [5] and in data set [6] was inactive.

As to `O=C(N/N=C/c1ccc(O)cc1)c1cccnc1`, the Activity result in data set [1] and in [3] was “Non-toxic” in each case. Further, the result in data set [2], in data set [4], in data set [5] and in [6] was inactive.

`O=C(N/N=C/c1ccc(Cl)cc1)c1cccnc1`: the 50% effective dose (ED50) was 31.4 mg/kg in data set [11] and 16.1 mg/kg in data set [18]. Further, the TD50 in data set [12] is above 320 mg/kg; in data set [13], above 325 mg/kg. The Activity result in data set [1] and in [3] was “Non-toxic” in each case. In addition, the figures for the minimal effective dose in data set [8], in data set [14] and in [16] were 100 mg/kg, 12.5 mg/kg and 12.5 mg/kg, respectively. For the same molecule, the outcome in data set [2], in [5] and in data set [6] was inactive. Also, the “Ratio TD50/ED50” value was above 20 in data set [15] and above 10 in data set [17].

As for `O=C(N/N=C/c1cccc(Cl)c1)c1ccccc1`, the Activity result in [1] and in [3] was “Non-toxic” in each case. The outcome in data set [2], in [4], in data set [5] and in data set [6] was inactive.

As to `O=C(N/N=C/c1cccc(Br)c1)c1cccnc1`, the Activity entry in data set [1] and in [3] was “Non-toxic” throughout. Also, the minimal effective dose in [8] turned out to be 100 mg/kg; in [14], 35 mg/kg; in data set [16], 35 mg/kg. Further, the outcome in data set [2], in [5] and in data set [6] was inactive. In data set [13], the TD50 is above 520 mg/kg. Besides, the “Ratio TD50/ED50” value in [15] is above 11. Besides, the ED50 in data set [18] is 47.2 mg/kg.

Consider `Cc1ccc(C(=O)N/N=C/c2cccc(Br)c2)cc1`, for which the Activity entry in data set [1] and in data set [3] was “Non-toxic” throughout. In addition, the outcome in data set [2], in data set [4], in data set [5] and in data set [6] was inactive.

For `O=C(N/N=C/c1cccc(Br)c1)c1ccccc1`, the Activity result in [1] and in [3] was “Non-toxic” in each case. For the same molecule, the outcome in [2], in data set [4], in data set [5] and in [6] was inactive.

`O=C(N/N=C/c1ccc(Cl)cc1)c1ccncc1`: the minimal effective dose in data set [7] and in data set [8] was 100 mg/kg throughout. In addition, the Activity in [9] and in data set [10] was 100 mg/kg each time. Besides, the result in [2] and in [5] was inactive.

Consider `O=C(N/N=C/c1ccccc1[N+](=O)[O-])c1ccncc1`, for which the Activity result in data set [1] and in data set [3] was “Non-toxic” throughout. Further, the result in data set [2], in data set [4], in data set [5] and in data set [6] was inactive.

`O=C(N/N=C/c1cccc(Cl)c1)c1cccnc1`: the Activity result in data set [1] and in data set [3] was “Non-toxic” in each case. Moreover, the minimal effective dose in [8] amounted to 300 mg/kg; in [16], 40 mg/kg. Besides, the outcome in data set [2], in data set [5] and in data set [6] was inactive. Also, in data set [13], the TD50 is above 500 mg/kg. Also, the “Ratio TD50/ED50” value in data set [15] is above 6.25. In [18], the median effective dose (ED50) is 80 mg/kg.
